Assay results from patent US8324172B2, “G protein coupled receptor agonists and antagonists and methods of activating and inhibiting G protein coupled receptors using the same” (Tufts Medical Center, Inc., priority 2000, dated 2012).
Where a chain is given by its changes, count along the chain named. pEC50: −log10 of the molar value. “And” between values parts separate entries of the source, which are not always exact repeats. Equal entries are not always repeated. Where a SMILES comes first, the peptide text is derived from it. The star is where a group is joined. Palmitoyl = CCCCCCCCCCCCCCCC(=O)*

Key:
PAR1 [1] = target: T1, PAR1 (Homo sapiens, UniProt P25116); assay: InsP formation (PLC-β) in Rat1 fibroblasts expressing human PAR1; format: cell-based; conditions: 0.1 nM thrombin
T1 construct: expressed in transfected cells
T1 sequence (P25116 22-425): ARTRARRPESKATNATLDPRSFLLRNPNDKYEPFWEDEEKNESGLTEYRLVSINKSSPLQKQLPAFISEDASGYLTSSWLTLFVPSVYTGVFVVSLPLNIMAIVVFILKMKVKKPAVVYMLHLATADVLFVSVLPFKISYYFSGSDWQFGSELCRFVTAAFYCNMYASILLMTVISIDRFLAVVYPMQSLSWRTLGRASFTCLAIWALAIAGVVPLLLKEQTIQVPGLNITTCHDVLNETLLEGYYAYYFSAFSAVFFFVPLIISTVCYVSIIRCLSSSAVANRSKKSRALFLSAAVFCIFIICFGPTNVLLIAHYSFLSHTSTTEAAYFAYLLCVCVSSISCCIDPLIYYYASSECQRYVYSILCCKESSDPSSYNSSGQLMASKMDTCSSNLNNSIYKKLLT

PAR1 [2] = target: T1, PAR1; assay: InsP formation in COS7 cells transiently transfected with wild-type PAR1; format: cell-based
S309P PAR1 = target: T2, S309P PAR1 (Homo sapiens, UniProt P25116, S309P); assay: InsP formation in COS7 cells expressing S309P PAR1 mutant; format: cell-based; conditions: relative to wild type PAR1
T2 construct: expressed in transfected cells; host or cells: COS7, transient
T2 sequence (P25116 22-425 S309P): T1 sequence (P25116 22-425) with S288P

delta377 PAR1 = assay: InsP formation in COS7 cells expressing delta377 (C-tail deleted) PAR1 mutant; format: cell-based, human; conditions: relative to wild type PAR1
murine platelets (PAR4) = assay: Aggregation of washed murine platelets; conditions: read-out: EC50 of aggregation of murine platelets
PAR4 [3] = target: T3, PAR4 (Homo sapiens, UniProt Q96RI0); assay: InsP formation in COS7 cells expressing PAR4; format: cell-based; design: expressed in transfected cells; host or cells: COS7, transient
T3 sequence (Q96RI0 18-385): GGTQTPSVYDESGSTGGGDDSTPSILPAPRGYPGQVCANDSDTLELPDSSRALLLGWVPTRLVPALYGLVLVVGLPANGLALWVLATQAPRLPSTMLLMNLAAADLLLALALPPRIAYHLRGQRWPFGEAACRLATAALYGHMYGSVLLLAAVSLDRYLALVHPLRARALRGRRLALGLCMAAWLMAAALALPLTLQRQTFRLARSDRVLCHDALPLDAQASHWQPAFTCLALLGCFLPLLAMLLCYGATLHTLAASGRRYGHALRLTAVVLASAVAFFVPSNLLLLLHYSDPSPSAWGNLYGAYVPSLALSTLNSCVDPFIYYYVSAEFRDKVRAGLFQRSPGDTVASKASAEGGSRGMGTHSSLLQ

[4] = test system: MDA-MB-231 breast cancer cells; assay: Chemoinvasion of MDA-MB-231 breast cancer cells (Transwell); format: cell-based, human; conditions: NIH3T3 conditioned medium
Description: Experiments were performed in order to determine if application of pepducins based on the i3 loops of PAR1, PAR2, or PAR4 would inhibit migration and invasion of breast cancer cells. It was determined that the highly invasive MDA-MB-231 breast cancer cell line expressed very high levels of functional PAR1, PAR2 and PAR4. […] Pepducins were added with NIH3T3 Conditioned medium (CM) to the bottom well of a Transwell apparatus.

PAR1 [5] = target: T1, PAR1; assay: Inhibition of SFLLRN-induced human platelet aggregation; format: cell-based; conditions: 3 μM pepducin, 1 min preincubation
PAR4 [6] = target: T3, PAR4; assay: Inhibition of AYPGKF-induced human platelet aggregation; format: cell-based; conditions: AYPGKF
[7] = test system: TXA2, ADP, collagen, or GPIb/IX/V receptors; assay: Inhibition of human platelet aggregation induced by U46619, ADP, collagen or ristocetin; format: cell-based; conditions: 5 μM pepducin, ristocetin
Source text: 84, 1440 (1989)) and von Willebrand factor (GPIb/IX/V) (Savage et al., Cell 94, 657 (1998)) using platelets as the biologically-relevant system.

PAR1 [8] = target: T1, PAR1; assay: Inhibition of PAR1-dependent platelet Ca2+ signal; format: cell-based; conditions: SFLLRN (or thrombin) after peptide pre-treatment
Description: (§1) Platelet Ca2+ measurements were performed as in Example 1.
(§2) The integrated Ca^2+ response for the individual treatments are relative to the full Ca^2+ responses for each agonist (100%) recorded in the absence of P4pal-10 (top trace).

PAR4 [9] = target: T3, PAR4; assay: Inhibition of PAR4-dependent platelet Ca2+ signal (AYPGKF); format: cell-based; conditions: 3 micromolar pepducin; 200 Micromolar AYPGKF
Description: as §1, §2

[10] = Tail bleeding time and rebleeding in mice; conditions: 3 μmoles/L i.v.
[11] = test system: thrombin receptors on human platelets; assay: Inhibition of thrombin-induced human platelet aggregation; conditions: 3 μM pepducin

thrombin [reference compound]
full PAR1 thrombin response (InsP stimulation) of individual experiments (PAR1 [1]): 7.6 fold and 9.4 fold and 12.4 fold and 18 fold and 9.5 fold and 5.2 fold
InsP stimulation of WT PAR1 (100%) (PAR1 [2]; 0.1 nM thrombin): 9.6 fold
loss of efficacy on S309P mutant (S309P PAR1): 1.6 fold
loss of potency on S309P mutant (S309P PAR1): 17 fold
shift of potency on delta377 mutant (delta377 PAR1): 22 fold
pEC50 (murine platelets (PAR4)): 9.22
full extracellular agonist-stimulated InsP response (PAR4 [3]; 10 nM thrombin): 3.1 fold

CCCCCCCCCCCCCCCC(=O)N[C@@H](CCCNC(=N)N)C(=O)N[C@@H](CCSC)C(=O)N[C@@H](CC(C)C)C(=O)N[C@@H](CCCNC(=N)N)C(=O)N[C@@H](CO)C(=O)N[C@@H](CO)C(=O)N[C@@H](C)C(=O)N[C@@H](CCSC)C(=O)N[C@@H](CC(=O)O)C(=O)N[C@@H](CCC(=O)O)C(=O)N[C@@H](CC(N)=O)C(=O)N[C@@H](CO)C(=O)N[C@@H](CCC(=O)O)C(=O)N[C@@H](CCCCN)C(=O)N[C@@H](CCCCN)C(=O)N[C@@H](CCCNC(=N)N)C(=O)N[C@@H](CCCCN)C(=O)N[C@@H](CCCNC(=N)N)C(=O)N[C@@H](C)C(=O)N[C@H](C(=O)N[C@@H](Cc1ccccc1)C(N)=O)[C@@H](C)CC [Pepducin P2pal-21F]
activation of PAR1 (InsP) (PAR1 [2]; COS7 cells, FIG. 2G): activated PAR1
inhibition of chemoinvasion [4]: 90%
activation of PAR4 (InsP) (PAR4 [3]; COS7 cells): not PAR4

CCCCCCCCCCCCCCCC(=O)N[C@@H](CCCNC(=N)N)C(=O)N[C@@H](CS)C(=O)N[C@@H](CC(C)C)C(=O)N[C@@H](CO)C(=O)N[C@@H](CO)C(=O)N[C@@H](CO)C(=O)N[C@@H](C)C(=O)N[C@H](C(=O)N[C@@H](C)C(=O)N[C@@H](CC(N)=O)C(=O)N[C@@H](CCCNC(=N)N)C(=O)N[C@@H](CO)C(N)=O)C(C)C [Pepducin P1pal-12] (Palmitoyl-RCLSSSAVANRS-NH2)
aggregation blocked (PAR1 [5]): 75-95%
inhibition of PAR4-dependent platelet aggregation (PAR4 [6]): does not inhibit PAR4-dependent platelet aggregation
block of aggregation by ligands of other platelet receptors [7]: did not block aggregation
inhibition of PAR1-dependent Ca2+ response (PAR1 [8]): effectively inhibits PAR1 activation
inhibition of PAR1-dependent Ca2+ response (PAR1 [8]; listed as P1pal12): completely block PAR1 signaling
inhibition of PAR4-dependent Ca2+ response (PAR4 [9]): does not block PAR4 activation
agonist activity in platelet aggregation (human platelets): loss of stimulatory activity
effect on tail-bleeding time [10]: did not prolong tail-bleeding time
mean total bleeding time [10]: 95 s
re-bleeding / unstable haemostasis [10]: did not prolong tail-bleeding time or result in unstable haemostasis
re-bleeding / unstable haemostasis ([10]; listed as P1pal12): not observed
inhibition of aggregation ([11]; 3 nM thrombin, 1 min): completely blocked aggregation
inhibition of aggregation ([11]; 20 nM thrombin): not appreciably blocked

CCCCCCCCCCCCCCCC(=O)N[C@@H](CCCCN)C(=O)N[C@@H](CCCCN)C(=O)N[C@@H](CO)C(=O)N[C@@H](CCCNC(=N)N)C(=O)N[C@@H](C)C(=O)N[C@@H](CC(C)C)C(=O)N[C@@H](Cc1ccccc1)C(N)=O [Pepducin P1pal-7, Pal-KKSRALF] (Palmitoyl-KKSRALF-NH2)
inhibition of chemoinvasion [4]: 30%
agonist activity in platelet aggregation (human platelets): loss of stimulatory activity
